Measurements taken from publication PMC11570497 (Nature Plants, 2024).
Entries after “also recorded” stand apart in the source; their conditions may differ. Where no end group is shown, it is not given here. The star is where a group is joined. Dabcyl = CN(C)c1ccc(N=Nc2ccc(C(=O)*)cc2)cc1; EDANS = O=S(=O)(O)c1cccc2c(NCCN*)cccc12

Key:
[1] = test system: leaf discs of N. benthamiana; type: cell-based, Nicotiana benthamiana; conditions: n = 6
[2] = n = 8
[3] = test system: P69B–His; assay: purified P69B–His; conditions: tomato, 21 °C, up to 20 min
[4] = AF of sbt5.2 mutant plants; conditions: Nicotiana benthamiana, 21 °C, up to 20 min
[5] = test system: SBT5.2a–His; type: biochemical, Nicotiana benthamiana; conditions: different concentrations of SBT5.2a–His; 100 nM csp22; 45 minutes; read-out ROS burst on six-week-old leaf discs; n = 6
Protocol: Four-week-old N. benthamiana leaves were infiltrated with a 1:1 mixture (final OD600 = 0.5 for each) of A. tumefaciens GV3101 containing the silencing suppressor P19 and pPB097 or pJP008. AF containing SBT5.2a–His or P69B–His was extracted six days after infiltration and purified as previously described[44],[45].
The ROS burst assay was performed as previously described[43] except that L-012 (Wako Chemical) was used instead of luminol and the diameter of leaf discs used here was 4 mm rather than 6 mm. Briefly, after incubation in water overnight, one leaf disc (4 mm in diameter) was added to 100 µl of solution containing 25 ng µl^−1 L-012, 25 ng µl^−1 HRP and specified elicitor treatments. […] After incubation, 25 ng µl^−1 L-012 and 25 ng µl^−1 HRP were added to the AFs. Chemiluminescence was measured immediately with an Infinite M200 plate reader (Tecan) every minute for one hour.

[6] = AF from WT N. benthamiana; conditions: Nicotiana benthamiana, room temperature, up to 60 min

O=S(=O)(F)Cc1ccccc1 [PMSF]
block of CspD perception (ROS burst) by subtilase inhibitor [1]: unable to block CspD perception

DTGTVKWFNTSKGFGFISRDSG [csp22 PSPTO3984]
speed of inactivation/degradation in AF of WT plants [2]: more quickly degraded than that of CspD

Dabcyl-VKWFNNAK-{EDANS}
not cleaved [3]: not cleaved by purified P69B–His | not cleaved [4]: no longer cleaved in AF of sbt5.2 mutants

LNGKVKWFNNAKGYGFILEDGK [csp22]
inactivation of csp22 elicitor activity by purified SBT5.2a–His [5]: dose-dependent inactivation

MLNGKVKWFNNAKGYGFILEDGKPDEDLFAHYSAIQMDGYKTLKAGQPVRFEIIQGPKGLHAVNIQSSLAKIGEPVKSAHAHTPEHAHA
cleaved bond [6]: F-N, first_seen, 15 min; also recorded: L-K, first_seen, 15 min

QTGTVKWFNDEKGFGFITPQSG [csp22 PSPTO4145]
speed of inactivation/degradation in AF of WT plants [2]: slower than that of CspD
